Test results reported in US20220324835A1 (Nurix Therapeutics, Inc., priority 2018, published 2022).

Columns and labels:
T-cells = test: In vivo activity: CD25 expression on CD4+ or CD8+ T-cells of mice stimulated with anti-CD3 antibody; conditions: 2 μg anti-CD3 antibody, 24 hours
Method: A method of determining the pharmacodynamic profile of Cbl-b inhibitors was performed by dosing strains of mice with competent immune systems such as C57BL/6 or BALB/c with a Cbl-b inhibitor. The Cbl-b inhibitor was dissolved in a suitable formulation and administered by one of various routes such as intravenous (IV), intraperitoneal (IP), subcutaneous (SC), or oral (PO), at a suitable dose level and frequency (e.g. twice per day BID or thrice per day TID) as informed by prior pharmacokinetic and tolerability studies. Following administration of the Cbl-b inhibitor, T-cells and indirectly other immune cells (e.g. via cytokine production) were stimulated in vivo by administration of an anti-CD3 antibody or antigen-binding fragment thereof in PBS at defined amounts such as 2 μg or 10 μg per animal by routes such as IV or IP (See Hirsh et al., J. Immunol., 1989; Ferran, et al., Eur. J. Immunol., 1990). Additional study control arms included groups of mice treated with a vehicle formulation alone (i.e., formulation without the Cbl-b inhibitor and anti-CD3 antibody), a formulation containing the Cbl-b inhibitor alone, a formulation containing the anti-CD3 antibody alone, PBS alone, or combinations of these agents. The level of immune activation was then assessed by analysis of plasma cytokine levels and/or expression of activation markers on immune cells (e.g. T-cells). Blood or lymphoid organs (e.g. spleen) were collected at defined time points (e.g. 8 hours or 24 hours). Blood samples were processed to collect plasma for determination of cytokine levels using standard methods known in the art. Cytokines measured included IL-2, IFNγ, and TNFα. Additional blood samples and lymphoid tissues were processed for flow cytometric analysis of immune cells (e.g. T-cells) using standard methods to determine expression of cell type-specific markers and activation markers such as CD25 and/or CD69. Augmentation of immune stimulation by Cbl-b inhibitor administration was assessed by comparing the relative concentrations of cytokines in plasma, or the expression levels of activation markers on immune cells between appropriate groups (e.g. mice treated with Cbl-b inhibitor and 2 μg anti-CD3 antibody versus mice treated with vehicle and 2 μg anti-CD3 antibody).
Cbl-b inhibitors were tested to determine their ability to induce or enhance the level of cytokines (e.g. IL-2, IFNγ, and TNFα) in blood obtained from treated mice stimulated with an anti-CD3 antibody, which is indicative of modulation of the immune response. Cbl-b inhibitors were also tested to determine their ability to induce or enhance the expression of cell surface markers on T-cells (e.g. CD25 and/or CD69) isolated from treated mice stimulated with an anti-CD3 antibody, which is indicative of modulation of the immune response.
Readouts were reported as fold change over baseline. The fold change was calculated from the mean value of mice treated with Cbl-b inhibitor and 2 μg anti-CD3 antibody, with the baseline defined as the mean value of mice treated with vehicle and 2 μg anti-CD3 antibody. Increases in the percentage of cells with surface expression of CD25 on CD4+ T-cells or CD8+ T-cells greater than 1.5-fold over baseline at 24 hours were considered a positive response. Increases in the plasma concentration of IL-2, IFNγ, and TNFα greater than 1.5-fold over baseline at 8 hours post-stimulation were also considered a positive response (Table 8). Fold changes were ranked into bins according to their readouts as follows: A indicates >2.50, B indicates 2.01-2.50, C indicates 1.51-2.00, D indicates 1.00-1.50, and E indicates <1.00.

T-cell [1] = test: IL-2 secretion from T-cells stimulated with anti-CD3 antibody alone (Biological Example 2); format: cell-based; conditions: primary human total T-cells, read-out: IL-2 secretion, Anti-CD3 stimulation, fold change over baseline; for fold induction at 1 µM: 1 μM compound; for fold induction at 8 µM: 8 μM compound
T-cell [2] = test: CD25 cell surface staining on T-cells stimulated with anti-CD3 antibody alone (Biological Example 2); format: cell-based; conditions: primary human total T-cells, baseline = anti-CD3/anti-CD28 stimulated cells without inhibitor, read-out: CD25 staining, Anti-CD3 stimulation, fold change over baseline; for fold induction at 1 µM: 1 μM compound; for fold induction at 8 µM: 8 μM compound

Structure (SMILES) | CD4+ T-cell % CD25+ (T-cells; 45 mpk PO BID) | CD8+ T-cell % CD25+ (T-cells; 45 mpk PO BID) | CD4+ T-cell % CD25+ (T-cells; 90 mpk PO BID) | CD8+ T-cell % CD25+ (T-cells; 90 mpk PO BID) | CD4+ T-cell % CD25+ (T-cells; 180 mpk PO BID) | CD8+ T-cell % CD25+ (T-cells; 180 mpk PO BID) | CD4+ T-cell % CD25+ (T-cells; 45 mpk IP BID) | CD8+ T-cell % CD25+ (T-cells; 45 mpk IP BID) | CD4+ T-cell % CD25+ (T-cells; 135 mpk PO BID) | CD8+ T-cell % CD25+ (T-cells; 135 mpk PO BID) | fold induction at 1 µM (T-cell [1]) | fold induction at 8 µM (T-cell [1]) | fold induction at 1 µM (T-cell [2]) | fold induction at 8 µM (T-cell [2])
C[C@H](c1cc2c(c(C(F)(F)F)c1)CN(c1cccc(C3([C@H](F)c4nncn4C)COC3)c1)C2=O)N1CCC2(CC2)C1 (stereo in doubt) [Example 575, 6-((R)-1-(5-Azaspiro[2.4]heptan-5-yl)ethyl)-2-(3-(3-((S)-fluoro(4-methyl-4H-1,2,4-triazol-3-yl)methyl)oxetan-3-yl)phenyl)-4-(trifluoromethyl)isoindolin-1-one] | C (C indicates 1.51-2.00) | D (D indicates 1.00-1.50) | A (A indicates >2.50) | C (C indicates 1.51-2.00) | A (A indicates >2.50) | C (C indicates 1.51-2.00) |  |  |  |  |  |  |  | 
C[C@H](Cc1nncn1C)c1cccc(NC(=O)c2cc(C3CC3)cc(C(F)(F)F)n2)c1 [Compound 191, (R)-4-cyclopropyl-N-(3-(1-(4-methyl-4H-1,2,4-triazol-3-yl)propan-2-yl)phenyl)-6-(trifluoromethyl)picolinamide] |  |  | D (D indicates 1.00-1.50) | D (D indicates 1.00-1.50) | B (B indicates 2.01-2.50) | D (D indicates 1.00-1.50) | C (C indicates 1.51-2.00) | D (D indicates 1.00-1.50) | D (D indicates 1.00-1.50) | D (D indicates 1.00-1.50) |  |  |  | 
CN1CC2CCC(C1)N2c1cc2c(c(C(F)(F)F)c1)CN(c1cccc(C3(Cc4nncn4C)COC3)c1)C2=O [Compound 386, 2-(3-(3-((4-Methyl-4H-1,2,4-triazol-3-yl)methyl)oxetan-3-yl)phenyl)-6-(3-methyl-3,8-diazabicyclo[3.2.1]octan-8-yl)-4-(trifluoromethyl)isoindolin-1-one] |  |  |  |  |  |  |  |  | C (C indicates 1.51-2.00) | D (D indicates 1.00-1.50) |  |  |  | 
Cn1cnnc1CC1(c2cccc(N3Cc4c(cc(CN5CC[C@H](F)C5)cc4C(F)(F)F)C3=O)c2)COC1 [Compound 410, 6-{[(3S)-3-fluoropyrrolidin-1-yl]methyl}-2-(3-{3-[(4-methyl-4H-1,2,4-triazol-3-yl)methyl]oxetan-3-yl}phenyl)-4-(trifluoromethyl)-2,3-dihydro-1H-isoindol-1-one] |  |  | D (D indicates 1.00-1.50) | D (D indicates 1.00-1.50) | D (D indicates 1.00-1.50) | D (D indicates 1.00-1.50) |  |  | D (D indicates 1.00-1.50) | D (D indicates 1.00-1.50) | > 0.201 | > 0.201 | > 1 | > 1
Cn1cnnc1CC1(c2cccc(N3Cc4c(cc(CN5CC[C@@H](C#N)C5)cc4C(F)(F)F)C3=O)c2)COC1 [Compound 421, (R)-1-((2-(3-(3-((4-methyl-4H-1,2,4-triazol-3-yl)methyl)oxetan-3-yl)phenyl)-3-oxo-7-(trifluoromethyl)isoindolin-5-yl)methyl)pyrrolidine-3-carbonitrile] |  |  | E (E indicates <1.00) | E (E indicates <1.00) | E (E indicates <1.00) | E (E indicates <1.00) |  |  | E (E indicates <1.00) | E (E indicates <1.00) | 0.101 to 0.15 | > 0.201 | > 1 | > 1
Cn1cnnc1CC1(c2cccc(N3Cc4c(cc(CN5C[C@H]6C[C@H]6C5)cc4C(F)(F)F)C3=O)c2)COC1 [Compound 429, 6-(((1R,5S)-3-azabicyclo[3.1.0]hexan-3-yl)methyl)-2-(3-(3-((4-methyl-4H-1,2,4-triazol-3-yl)methyl)oxetan-3-yl)phenyl)-4-(trifluoromethyl)isoindolin-1-one] |  |  |  |  |  |  |  |  | D (D indicates 1.00-1.50) | D (D indicates 1.00-1.50) | > 0.201 | > 0.201 | > 1 | > 1
Cn1cnnc1CC1(c2cccc(N3Cc4c(cc(CN5CCC[C@H](F)C5)cc4C(F)(F)F)C3=O)c2)COC1 [Compound 432, 6-{[(3S)-3-fluoropiperidin-1-yl]methyl}-2-(3-{3-[(4-methyl-4H-1,2,4-triazol-3-yl)methyl]oxetan-3-yl}phenyl)-4-(trifluoromethyl)-2,3-dihydro-1H-isoindol-1-one] |  |  |  |  |  |  |  |  | D (D indicates 1.00-1.50) | D (D indicates 1.00-1.50) | > 0.201 |  | > 1 | 
Cn1cnnc1CC1(c2cccc(N3Cc4c(cc(CN5CCC(C)(F)CC5)cc4C(F)(F)F)C3=O)c2)COC1 [Example 620, 6-((4-fluoro-4-methylpiperidin-1-yl)methyl)-2-(3-(3-((4-methyl-4H-1,2,4-triazol-3-yl)methyl)oxetan-3-yl)phenyl)-4-(trifluoromethyl)isoindolin-1-one] |  |  | D (D indicates 1.00-1.50) | D (D indicates 1.00-1.50) | D (D indicates 1.00-1.50) | E (E indicates <1.00) |  |  | D (D indicates 1.00-1.50) | E (E indicates <1.00) |  |  |  | 
C[C@@H]1CN(Cc2cc3c(c(C(F)(F)F)c2)CN(c2cccc(C4(Cc5nncn5C)COC4)c2)C3=O)CCO1 [Example 663b, (R)-2-(3-(3-((4-methyl-4H-1,2,4-triazol-3-yl)methyl)oxetan-3-yl)phenyl)-6-((2-methylmorpholino)methyl)-4-(trifluoromethyl)isoindolin-1-one] | D (D indicates 1.00-1.50) | D (D indicates 1.00-1.50) |  |  |  |  |  |  | C (C indicates 1.51-2.00) | D (D indicates 1.00-1.50) |  |  |  | 
Cn1cnnc1[C@@H](F)C1(c2cccc(N3Cc4c(cc(CN5CCC(F)CC5)cc4C(F)(F)F)C3=O)c2)COC1 [Example 670a, (S)-2-(3-(3-(fluoro(4-methyl-4H-1,2,4-triazol-3-yl)methyl)oxetan-3-yl)phenyl)-6-((4-fluoropiperidin-1-yl)methyl)-4-(trifluoromethyl)isoindolin-1-one] |  |  |  |  |  |  |  |  | B (B indicates 2.01-2.50) | D (D indicates 1.00-1.50) |  |  |  | 
Cn1cnnc1[C@H](F)C1(c2cccc(N3Cc4c(cc(CN5CCC(F)CC5)cc4C(F)(F)F)C3=O)c2)COC1 [Example 670b, (R)-2-(3-(3-(fluoro(4-methyl-4H-1,2,4-triazol-3-yl)methyl)oxetan-3-yl)phenyl)-6-((4-fluoropiperidin-1-yl)methyl)-4-(trifluoromethyl)isoindolin-1-one] |  |  |  |  |  |  |  |  | C (C indicates 1.51-2.00) | D (D indicates 1.00-1.50) |  |  |  | 
